US20100028427A1, “IMMEDIATE RELEASE FORMULATIONS OF 1-AMINOCYCLOHEXANE COMPOUNDS, MEMANTINE AND NERAMEXANE” (Forest Laboratories, Inc., priority 2004, published 2010)

Test: Solubility and permeability (Biopharmaceutical Classification System)
Assay type: physicochemical

- solubility: highly soluble
Compound: CC12CC3CC(C)(C1)CC(N)(C3)C2.Cl [Memantine HCl, 1-amino-3,5-dimethyladamantane hydrochloride]
